We go through three compounds from patent US20210388455A1 (priority 2020, published 2021).

Where two headings read alike, the source gives them in different places.

In data set [1] the test system is SARS-CoV-2. Conditions: known values of FDA approved drugs; cited from earlier work.
The target of data set [2] is ACE2 binding to SARS-CoV-2 S1-RBD (Homo sapiens, UniProt Q9BYF1). The experiment in a line: ELISA of ACE2/S1-RBD inhibitory activity. The arrangement: species or system human ACE2 / SARS-CoV-2. Conditions: recombinant 2019-nCoV S1-RBD coated plate, read-out: IC50 inhibiting ACE2 binding to SARS-CoV-2 S1-RBD. (In general: An ELISA detects its analyte on a solid surface through an enzyme-linked reagent.)

For another data set, the system named is VeroE6-EGFP cells. Conditions: no virus.
Data set [3] concerns SARS-CoV-2. Type of data set: cell-based.

Chain of ACE2 binding to SARS-CoV-2 S1-RBD (Q9BYF1 18-740): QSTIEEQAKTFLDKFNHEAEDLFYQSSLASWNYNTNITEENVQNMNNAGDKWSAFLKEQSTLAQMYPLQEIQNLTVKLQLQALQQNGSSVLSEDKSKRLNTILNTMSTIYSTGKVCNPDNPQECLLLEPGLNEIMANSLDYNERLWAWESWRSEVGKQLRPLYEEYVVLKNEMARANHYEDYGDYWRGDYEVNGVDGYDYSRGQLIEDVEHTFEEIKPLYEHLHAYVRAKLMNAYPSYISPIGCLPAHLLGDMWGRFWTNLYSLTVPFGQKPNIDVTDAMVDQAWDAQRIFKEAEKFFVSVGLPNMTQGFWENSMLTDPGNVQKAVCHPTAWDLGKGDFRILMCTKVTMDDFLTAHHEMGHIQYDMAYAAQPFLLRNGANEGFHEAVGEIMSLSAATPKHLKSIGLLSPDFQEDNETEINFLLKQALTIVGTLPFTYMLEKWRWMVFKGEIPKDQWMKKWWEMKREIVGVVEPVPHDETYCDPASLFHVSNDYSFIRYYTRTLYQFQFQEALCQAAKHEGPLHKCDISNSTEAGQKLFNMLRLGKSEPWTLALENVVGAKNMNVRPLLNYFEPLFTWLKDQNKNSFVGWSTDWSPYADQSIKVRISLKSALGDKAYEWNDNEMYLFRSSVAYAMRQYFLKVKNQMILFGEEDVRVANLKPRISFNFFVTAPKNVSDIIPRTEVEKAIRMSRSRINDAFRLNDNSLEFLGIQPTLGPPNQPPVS

For `Nc1nc2c(ncn2CCC(CO)CO)c(=O)[nH]1` [Penciclovir], the EC50 (in general, the concentration at which the effect is half-maximal) in the data set with SARS-CoV-2 [1] is 96 µM.
Turning to Kobophenol A, in data set [2], the IC50 – broadly, the midpoint of a concentration-inhibition curve – amounted to 1.81 ± 0.04 µM. The half-maximal cytotoxic concentration (CC50) (as a rule, the concentration at which the toxic effect on the cells reaches its halfway point) with VeroE6-EGFP cells is > 100 µM. Further, a half-maximal effect in the data set on SARS-CoV-2 [3] (EC50) was put at 71.6 µM.
Take `CC(C)(C)NC(=O)[C@@H]1CN(Cc2cccnc2)CCN1C[C@@H](O)C[C@@H](Cc1ccccc1)C(=O)N[C@H]1c2ccccc2C[C@H]1O` [Indinavir]: in the data set with SARS-CoV-2 [1], the EC50 was 59.1 µM.
